Measurements published in US9328124B2, “BACE inhibitors” (Eli Lilly and Company, priority 2012, dated 2016).
Counter-ions that a name gives are not always drawn. Like-named read-outs stand apart in the source and are kept apart here.

Legend:
[1] = biological target: human BACE1(1-460):Fc (Homo sapiens (Human), UniProt P56817); assay: BACE1 FRET assay; format: biochemical; conditions: purified recombinant human BACE1, FRET; Mean ± SEM
Description: For in vitro enzymatic and cellular assays, test compounds are prepared in DMSO to make up a 10 mM stock solution.
This fusion protein of BACE1(1-460) and human Fc, named huBACE1:Fc, is constructed into the pJB02 vector. Human BACE1(1-460):Fc (huBACE1:Fc) is transiently expressed in HEK293 cells. 250 μg cDNA of each construct is mixed with Fugene 6 and added to 1 liter HEK293 cells. Four days after the transfection, conditioned media are harvested for purification. huBACE1:Fc is purified by Protein A chromatography. The enzyme is stored at −80° C. in small aliquots.
Serial dilutions of test compounds are prepared as described above. Compounds are further diluted 20× in KH2PO4 buffer. Ten μL of each dilution is added to each well on row A to H of a corresponding low protein binding black plate containing the reaction mixture (25 μL of 50 mM KH2PO4, pH 4.6, 1 mM TRITON® X-100, 1 mg/mL Bovine Serum Albumin, and 15 μM of FRET substrate) (See Yang, et. al., J. Neurochemistry, 91(6) 1249-59 (2004)). The content is mixed well on a plate shaker for 10 minutes. […] The RFU of the mixture at time 0 is recorded at excitation wavelength 355 nm and emission wavelength 460 nm, after brief mixing on a plate shaker. […] The RFU at the end of incubation is recorded with the same excitation and emission settings used at time 0. […]

[2] = biological target: native endogenous human BACE1 (Homo sapiens (Human), UniProt P56817); assay: HEK293Swe whole cell assay (Abeta ELISA); format: cell-based; conditions: HEK293/APP751sw cells
Chain of native endogenous human BACE1 (P56817 46-501): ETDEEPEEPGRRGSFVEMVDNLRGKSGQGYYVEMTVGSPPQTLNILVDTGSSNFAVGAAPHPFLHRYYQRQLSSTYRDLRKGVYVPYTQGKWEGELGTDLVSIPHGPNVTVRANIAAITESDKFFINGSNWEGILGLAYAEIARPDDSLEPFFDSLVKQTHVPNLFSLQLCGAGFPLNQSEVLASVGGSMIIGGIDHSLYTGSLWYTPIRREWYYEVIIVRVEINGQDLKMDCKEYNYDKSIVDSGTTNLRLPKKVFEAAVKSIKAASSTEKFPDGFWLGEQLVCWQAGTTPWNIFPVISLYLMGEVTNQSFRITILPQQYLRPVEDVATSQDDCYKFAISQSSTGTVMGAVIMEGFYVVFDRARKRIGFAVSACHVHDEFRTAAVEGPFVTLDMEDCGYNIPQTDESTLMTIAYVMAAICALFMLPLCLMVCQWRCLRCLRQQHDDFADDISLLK
Description: For in vitro enzymatic and cellular assays, test compounds are prepared in DMSO to make up a 10 mM stock solution. The stock solution is serially diluted in DMSO to obtain a ten-point dilution curve with final compound concentrations ranging from […] to 1 nM in a 96-well round-bottom plate before conducting the in vitro enzymatic and whole cell assays. […]
Cells (HEK293/APP751sw at 3.5×10^4 cells/well, containing 200 μL culture media, DMEM containing 10% FBS) are incubated at 37° C. for 4 to 24 h in the presence/absence of inhibitors (diluted in DMSO) at the desired concentration. At the end of the incubation, conditioned media are analyzed for evidence of beta-secretase activity, for example, by analysis of Abeta peptides. Total Abeta peptides (Abeta 1-x) are measured by a sandwich ELISA, using monoclonal 266 as a capture antibody and biotinylated 3D6 as reporting antibody. Alternatively, Abeta 1-40 and Abeta 1-42 peptides are measured by a sandwich ELISA, using monoclonal 2G3 as a capture antibody for Abeta 1-40, and monoclonal 21F12 as a capture antibody for Abeta 1-42. […]

[3] = biological target: native, endogenous murine BACE1 (Mus musculus (Mouse), UniProt P56818); assay: PDAPP primary neuronal assay (Abeta ELISA); format: cell-based; conditions: primary cortical neurons from PDAPP embryos
Chain of native, endogenous murine BACE1 (P56818 46-501): as the sequence (P56817 46-501) above, with P6S, V162I, L165I, S180T, V182A, I340V, L393A, Q443H counted along it
Description: For in vitro enzymatic and cellular assays, test compounds are prepared in DMSO to make up a 10 mM stock solution. […] A confirmatory whole cell assay is also run in primary neuronal cultures generated from PDAPP transgenic embryonic mice. […] After 2 days in vitro, culture media is replaced with serum free DMEM/F12 (1:1) containing B27 supplement and 2 μM (final) of Ara-C (Sigma, C1768). At day 5 in vitro, neurons are incubated at 37° C. for 24 h in the presence/absence of inhibitors (diluted in DMSO) at the desired concentration. At the end of the incubation, conditioned media are analyzed for evidence of beta-secretase activity, for example, by analysis of Abeta peptides. […] Both Abeta 1-40 and Abeta 1-42 ELISAs use biotinylated 3D6 as the reporting antibody. The concentration of Abeta released in the conditioned media following the compound treatment corresponds to the activity of BACE1 under such conditions.

[4] = biological target: BACE (the beta-secretase enzyme) (Mus musculus (Mouse), UniProt P56818); assay: In vivo inhibition of beta-secretase in PDAPP mice (brain Abeta 1-x); conditions: 3 hours, young female PDAPP mice, vs vehicle
Chain of BACE (the beta-secretase enzyme) (P56818 46-501): as the sequence (P56817 46-501) above, with P6S, V162I, L165I, S180T, V182A, I340V, L393A, Q443H counted along it
Description: Several animal models, including mouse, rat, guinea pig, dog, and monkey, may be used to screen for inhibition of beta-secretase activity in vivo following compound treatment Animals used in this invention were transgenic PDAPP mice as described in Games et al., Nature 373, 523-527 (1995), which have been useful to analyze in vivo inhibition of Abeta production in the presence of inhibitory compounds. Two month old PDAPP mice are administered compound formulated in N-methylpyrolidone (Pharmasolve®) in water. Three hours following the administration of compound, animals are sacrificed, and brains are removed for analysis of Abeta fragments. (See Dovey, et al., Journal of Neurochemistry, 76, 173-181 (2001); and Johnson-Wood, et al., Proc. Natl. Acad. Sci. USA, 94, 1550-1555 (1997)).
For standard in vivo pharmacology studies, animals are dosed with various concentrations of compound and compared to a vehicle-treated control group dosed at the same time. At the end of the test period, animals are sacrificed and brain tissues are analyzed for the presence of Abeta peptides by specific sandwich ELISA assays. “Abeta 1-x peptide” as used herein refers to the sum of Abeta species that begin with residue 1 and end with a C-terminus greater than residue 28. This detects the majority of Abeta species and is often called “total Abeta”.
Significant and dose-responsive reduction of total Abeta after oral administration of the compound of Example 8 is consistent with a mechanism of BACE (the beta-secretase enzyme) inhibition in vivo. […] As such, compounds of the present invention are efficacious inhibitors of BACE.

[5] = Abeta 1-40, read-out: PDAPP Neuron A-beta (1-40) ELISA IC50
[6] = Abeta 1-42, read-out: PDAPP Neuron A-beta (1-42) ELISA IC50

Chain of human BACE1(1-460):Fc (P56817 22-460): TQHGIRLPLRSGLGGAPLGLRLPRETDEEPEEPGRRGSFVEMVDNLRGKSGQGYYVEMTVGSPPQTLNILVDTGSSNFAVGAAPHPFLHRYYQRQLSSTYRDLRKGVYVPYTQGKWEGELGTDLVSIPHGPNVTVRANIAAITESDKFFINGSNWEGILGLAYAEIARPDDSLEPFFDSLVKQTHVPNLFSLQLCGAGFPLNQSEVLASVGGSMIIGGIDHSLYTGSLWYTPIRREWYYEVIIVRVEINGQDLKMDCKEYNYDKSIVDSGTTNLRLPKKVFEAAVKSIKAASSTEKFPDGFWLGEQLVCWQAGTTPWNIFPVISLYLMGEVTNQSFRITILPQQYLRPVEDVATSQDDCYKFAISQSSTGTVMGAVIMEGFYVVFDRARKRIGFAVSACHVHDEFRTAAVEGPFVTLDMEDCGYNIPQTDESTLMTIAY

| IC50 [3, 5] [nM] | IC50 [3, 6] [nM] | Structure (SMILES) | IC50 [1] [nM] | IC50 ([2]; Abeta 1-40, read-out: HEK 293 Swe A-beta (1-40) ELISA IC50) [nM] | IC50 ([2]; Abeta 1-42, read-out: HEK 293 Swe A-beta (1-42) ELISA IC50) [nM] | Abeta 1-x peptide levels reduced in brain cortex ([4]; 10 mg/kg oral dose) | Abeta 1-x peptide levels reduced in brain hippocampus ([4]; 10 mg/kg oral dose) | Abeta 1-x peptide levels reduced in brain cortex ([4]; 30 mg/kg oral dose) [%] | Abeta 1-x peptide levels reduced in brain hippocampus ([4]; 30 mg/kg oral dose) [%] |
| --- | --- | --- | --- | --- | --- | --- | --- | --- | --- |
| 109 | 83.1 | CC(C)(O)c1nc(N2C[C@H]3CSC(N)=N[C@@]3(c3ccc(F)cn3)C2)ncc1F [Example 12, 2-[2-[(4aR,7aR)-2-Amino-7a-(5-fluoro-2-pyridyl)-4,4a,5,7-tetrahydropyrrolo[3,4-d][1,3]thiazin-6-yl]-5-fluoro-pyrimidin-4-yl]propan-2-ol hydrochloride] | – | – | – | – | – | – | – |
| 98.2 | 80.1 | CC(C)(O)c1nc(N2C[C@H]3CSC(N)=N[C@@]3(c3cccnc3)C2)ncc1F [Example 15, 2-[2-[(4aR,7aS)-2-Amino-7a-(3-pyridyl)-4,4a,5,7-tetrahydropyrrolo[3,4-d][1,3]thiazin-6-yl]-5-fluoro-pyrimidin-4-yl]propan-2-ol hydrochloride] | 93.5 | – | – | – | – | – | – |

| Structure (SMILES) | IC50 [3, 5] [nM] | IC50 [3, 6] [nM] | IC50 [1] [nM] | IC50 ([2]; Abeta 1-40, read-out: HEK 293 Swe A-beta (1-40) ELISA IC50) [nM] | IC50 ([2]; Abeta 1-42, read-out: HEK 293 Swe A-beta (1-42) ELISA IC50) [nM] | Abeta 1-x peptide levels reduced in brain cortex ([4]; 10 mg/kg oral dose) | Abeta 1-x peptide levels reduced in brain hippocampus ([4]; 10 mg/kg oral dose) | Abeta 1-x peptide levels reduced in brain cortex ([4]; 30 mg/kg oral dose) [%] | Abeta 1-x peptide levels reduced in brain hippocampus ([4]; 30 mg/kg oral dose) [%] |
| --- | --- | --- | --- | --- | --- | --- | --- | --- | --- |
| CC(C)(O)c1nc(N2C[C@H]3CSC(N)=N[C@@]3(c3cnccn3)C2)ncc1F.Cl [Example 8, 2-[2-[(4aR,7aR)-2-Amino-7a-pyrazin-2-yl-4,4a,5,7-tetrahydropyrrolo[3,4-d][1,3]thiazin-6-yl]-5-fluoro-pyrimidin-4-yl]propan-2-ol hydrochloride] | 455 | 412 | 105 | 242 | 395 | approximately 23% | approximately 19% | ~53 | ~46 |
